Reference: the supplement of paper PMC12076712

What was measured:
Test in all cases: pIC50, kinobeads binding competition
TBK1 = target: T1, TBK1 (UniProt Q9UHD2)
T1 sequence (whole entry): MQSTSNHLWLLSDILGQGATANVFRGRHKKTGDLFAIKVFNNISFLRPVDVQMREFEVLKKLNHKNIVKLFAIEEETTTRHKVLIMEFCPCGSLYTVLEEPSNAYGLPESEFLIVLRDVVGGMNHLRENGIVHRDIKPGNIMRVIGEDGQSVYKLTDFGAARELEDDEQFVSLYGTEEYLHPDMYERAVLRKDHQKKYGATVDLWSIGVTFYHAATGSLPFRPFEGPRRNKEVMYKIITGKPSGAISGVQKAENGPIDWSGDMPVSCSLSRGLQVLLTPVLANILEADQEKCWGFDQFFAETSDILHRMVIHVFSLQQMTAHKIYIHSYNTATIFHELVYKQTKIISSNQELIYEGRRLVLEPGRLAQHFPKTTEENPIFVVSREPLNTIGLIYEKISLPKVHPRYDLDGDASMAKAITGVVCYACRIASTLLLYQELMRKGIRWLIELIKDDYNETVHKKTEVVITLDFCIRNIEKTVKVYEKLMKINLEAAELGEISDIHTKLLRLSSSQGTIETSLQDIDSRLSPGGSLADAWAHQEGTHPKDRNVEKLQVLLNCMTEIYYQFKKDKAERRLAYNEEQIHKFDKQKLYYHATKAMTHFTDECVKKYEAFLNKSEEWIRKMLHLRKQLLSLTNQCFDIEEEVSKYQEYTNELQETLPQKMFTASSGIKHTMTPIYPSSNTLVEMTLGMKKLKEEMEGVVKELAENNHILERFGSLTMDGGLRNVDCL
Method in brief: (§1)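 Fold changes relative to vehicle, from biological duplicates, were fitted with logistic dose-response models in the R drc package to give pIC50. These fold changes came from TMT10 LC-MS/MS quantification of digested Kinobeads-bound proteins. Compound was applied at nine concentrations (top 30 μM) either to live Jurkat cells in 1:4 steps for 60 min at 37 °C before lysis, or to Jurkat lysate or a 1:1:1:1 HEK293/K-562/HepG2/placenta lysate mix in 1:5 steps for 60 min at 4 °C.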

LIMK2 = LIMK2 (UniProt P53671)
Method in brief: as §1

AXL = AXL (UniProt P30530); details: cell material: Lysate mix
Method in brief: as §1

Fes = Fes (UniProt P07332); details: cell material: Lysate mix
Method in brief: as §1

CLK4 = CLK4 (UniProt Q9HAZ1)
Method in brief: as §1

AKT2 = AKT2 (UniProt P31751)
Method in brief: as §1

KSR1 = target: T2, KSR1 (UniProt Q8IVT5)
T2 sequence (whole entry): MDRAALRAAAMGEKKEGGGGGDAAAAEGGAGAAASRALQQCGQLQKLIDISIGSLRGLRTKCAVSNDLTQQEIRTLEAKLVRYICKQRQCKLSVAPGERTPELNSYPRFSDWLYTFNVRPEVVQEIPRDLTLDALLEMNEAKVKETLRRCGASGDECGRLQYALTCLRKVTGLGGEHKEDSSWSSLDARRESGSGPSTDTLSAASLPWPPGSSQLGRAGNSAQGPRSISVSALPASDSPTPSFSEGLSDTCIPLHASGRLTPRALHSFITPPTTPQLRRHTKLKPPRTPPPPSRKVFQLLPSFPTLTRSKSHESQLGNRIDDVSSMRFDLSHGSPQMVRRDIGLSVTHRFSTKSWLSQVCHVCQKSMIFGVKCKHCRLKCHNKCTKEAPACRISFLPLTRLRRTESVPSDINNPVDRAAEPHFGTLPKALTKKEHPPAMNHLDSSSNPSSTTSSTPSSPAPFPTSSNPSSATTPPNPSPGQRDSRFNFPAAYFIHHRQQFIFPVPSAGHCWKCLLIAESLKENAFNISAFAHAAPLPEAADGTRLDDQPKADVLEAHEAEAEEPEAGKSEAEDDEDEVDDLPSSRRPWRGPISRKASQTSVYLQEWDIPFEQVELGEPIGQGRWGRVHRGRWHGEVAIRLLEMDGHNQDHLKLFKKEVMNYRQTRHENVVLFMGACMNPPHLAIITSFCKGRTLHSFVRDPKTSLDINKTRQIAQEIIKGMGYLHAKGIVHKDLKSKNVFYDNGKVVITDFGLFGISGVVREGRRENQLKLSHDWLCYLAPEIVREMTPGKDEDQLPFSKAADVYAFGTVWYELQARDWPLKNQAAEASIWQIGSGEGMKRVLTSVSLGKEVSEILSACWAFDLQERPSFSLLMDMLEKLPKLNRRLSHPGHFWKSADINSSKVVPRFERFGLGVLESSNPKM
Method in brief: as §1

UniProt P00519 = target: UniProt P00519
Method in brief: as §1

PAK2 = PAK2 (UniProt Q13177)
Method in brief: as §1

UniProt Q8NEB9 = target: UniProt Q8NEB9
Method in brief: as §1

MAPKAPK3 = MAPKAPK3 (UniProt Q16644)
Method in brief: as §1

UniProt P80192 = target: UniProt P80192
Method in brief: as §1

UniProt Q02750 = target: UniProt Q02750
Method in brief: as §1

SGK2 = target: T3, SGK2 (UniProt Q9HBY8); details: cell material: Lysate mix
T3 sequence (whole entry): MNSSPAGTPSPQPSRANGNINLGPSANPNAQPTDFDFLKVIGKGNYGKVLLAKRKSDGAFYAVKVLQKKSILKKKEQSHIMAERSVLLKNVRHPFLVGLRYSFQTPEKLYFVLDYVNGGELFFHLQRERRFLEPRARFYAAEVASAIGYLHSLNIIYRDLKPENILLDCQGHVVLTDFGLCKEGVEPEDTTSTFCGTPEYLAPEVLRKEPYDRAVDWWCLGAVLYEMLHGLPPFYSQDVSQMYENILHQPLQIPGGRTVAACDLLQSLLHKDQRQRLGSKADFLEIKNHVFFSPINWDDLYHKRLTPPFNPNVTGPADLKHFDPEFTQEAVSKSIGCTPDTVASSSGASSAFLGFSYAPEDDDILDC
Method in brief: as §1

Chain of UniProt Q02750 (Q02750 whole entry): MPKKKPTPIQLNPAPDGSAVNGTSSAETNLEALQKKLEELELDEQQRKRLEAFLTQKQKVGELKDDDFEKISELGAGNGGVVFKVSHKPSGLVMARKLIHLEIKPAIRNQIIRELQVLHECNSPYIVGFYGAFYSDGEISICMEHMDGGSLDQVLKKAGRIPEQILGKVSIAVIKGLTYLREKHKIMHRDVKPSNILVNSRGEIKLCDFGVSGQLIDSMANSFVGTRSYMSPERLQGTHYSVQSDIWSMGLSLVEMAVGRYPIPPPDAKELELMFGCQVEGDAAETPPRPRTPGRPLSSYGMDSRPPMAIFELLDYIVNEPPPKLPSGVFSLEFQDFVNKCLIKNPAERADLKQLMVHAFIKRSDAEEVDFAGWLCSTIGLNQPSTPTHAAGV
Chain of UniProt P00519 (P00519 whole entry): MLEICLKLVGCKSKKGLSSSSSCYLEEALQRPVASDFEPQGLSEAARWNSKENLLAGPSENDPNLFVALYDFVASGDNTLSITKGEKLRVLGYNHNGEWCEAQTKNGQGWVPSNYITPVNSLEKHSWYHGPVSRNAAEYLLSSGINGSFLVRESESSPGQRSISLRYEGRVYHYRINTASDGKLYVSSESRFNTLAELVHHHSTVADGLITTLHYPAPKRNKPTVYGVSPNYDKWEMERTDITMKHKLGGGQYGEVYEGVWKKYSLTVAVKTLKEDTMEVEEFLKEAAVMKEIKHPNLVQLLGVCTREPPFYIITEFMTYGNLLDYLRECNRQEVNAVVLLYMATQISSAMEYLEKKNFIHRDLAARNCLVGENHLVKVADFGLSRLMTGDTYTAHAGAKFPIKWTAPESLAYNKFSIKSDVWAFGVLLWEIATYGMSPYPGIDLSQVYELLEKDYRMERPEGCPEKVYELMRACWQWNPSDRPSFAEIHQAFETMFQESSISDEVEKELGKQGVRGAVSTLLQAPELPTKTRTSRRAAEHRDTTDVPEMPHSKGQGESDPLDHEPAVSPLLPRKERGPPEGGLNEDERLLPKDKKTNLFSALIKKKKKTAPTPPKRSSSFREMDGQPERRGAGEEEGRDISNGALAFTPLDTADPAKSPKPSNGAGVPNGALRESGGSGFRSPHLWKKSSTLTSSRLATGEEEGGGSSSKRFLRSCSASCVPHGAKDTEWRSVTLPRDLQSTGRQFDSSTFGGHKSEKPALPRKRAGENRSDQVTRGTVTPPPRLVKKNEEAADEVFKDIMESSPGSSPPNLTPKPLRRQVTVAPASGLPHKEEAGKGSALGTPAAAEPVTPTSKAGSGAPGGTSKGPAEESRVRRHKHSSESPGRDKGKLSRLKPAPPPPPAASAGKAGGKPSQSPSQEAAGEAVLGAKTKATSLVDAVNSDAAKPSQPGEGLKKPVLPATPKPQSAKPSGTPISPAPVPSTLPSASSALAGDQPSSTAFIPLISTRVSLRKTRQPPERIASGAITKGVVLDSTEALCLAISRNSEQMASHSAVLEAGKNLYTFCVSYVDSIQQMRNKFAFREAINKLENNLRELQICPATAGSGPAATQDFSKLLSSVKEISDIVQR
Chain of AXL (P30530 whole entry): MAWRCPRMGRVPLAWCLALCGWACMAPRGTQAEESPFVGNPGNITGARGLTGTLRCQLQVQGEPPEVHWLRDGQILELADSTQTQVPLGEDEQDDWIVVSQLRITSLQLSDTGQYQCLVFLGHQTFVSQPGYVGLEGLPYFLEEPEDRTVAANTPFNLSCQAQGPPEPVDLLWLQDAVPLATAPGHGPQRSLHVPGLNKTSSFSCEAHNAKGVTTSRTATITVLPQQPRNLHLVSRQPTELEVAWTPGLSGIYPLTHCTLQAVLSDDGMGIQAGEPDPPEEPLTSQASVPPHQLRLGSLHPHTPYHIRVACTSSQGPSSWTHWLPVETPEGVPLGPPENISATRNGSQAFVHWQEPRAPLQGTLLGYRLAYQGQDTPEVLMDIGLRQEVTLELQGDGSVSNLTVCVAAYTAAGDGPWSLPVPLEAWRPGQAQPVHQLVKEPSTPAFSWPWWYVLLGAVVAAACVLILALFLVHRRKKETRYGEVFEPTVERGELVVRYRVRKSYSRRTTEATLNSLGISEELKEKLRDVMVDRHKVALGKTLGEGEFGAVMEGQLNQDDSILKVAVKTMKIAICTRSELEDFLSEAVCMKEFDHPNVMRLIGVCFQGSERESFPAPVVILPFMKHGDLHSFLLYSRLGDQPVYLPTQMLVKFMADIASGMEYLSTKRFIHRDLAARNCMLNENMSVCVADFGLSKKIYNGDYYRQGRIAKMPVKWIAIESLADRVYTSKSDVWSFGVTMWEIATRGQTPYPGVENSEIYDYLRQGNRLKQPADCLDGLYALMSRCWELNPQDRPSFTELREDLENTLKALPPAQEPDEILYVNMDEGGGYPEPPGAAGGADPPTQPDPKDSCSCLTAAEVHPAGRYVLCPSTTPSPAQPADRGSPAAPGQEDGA
Chain of UniProt P80192 (P80192 whole entry, looked up): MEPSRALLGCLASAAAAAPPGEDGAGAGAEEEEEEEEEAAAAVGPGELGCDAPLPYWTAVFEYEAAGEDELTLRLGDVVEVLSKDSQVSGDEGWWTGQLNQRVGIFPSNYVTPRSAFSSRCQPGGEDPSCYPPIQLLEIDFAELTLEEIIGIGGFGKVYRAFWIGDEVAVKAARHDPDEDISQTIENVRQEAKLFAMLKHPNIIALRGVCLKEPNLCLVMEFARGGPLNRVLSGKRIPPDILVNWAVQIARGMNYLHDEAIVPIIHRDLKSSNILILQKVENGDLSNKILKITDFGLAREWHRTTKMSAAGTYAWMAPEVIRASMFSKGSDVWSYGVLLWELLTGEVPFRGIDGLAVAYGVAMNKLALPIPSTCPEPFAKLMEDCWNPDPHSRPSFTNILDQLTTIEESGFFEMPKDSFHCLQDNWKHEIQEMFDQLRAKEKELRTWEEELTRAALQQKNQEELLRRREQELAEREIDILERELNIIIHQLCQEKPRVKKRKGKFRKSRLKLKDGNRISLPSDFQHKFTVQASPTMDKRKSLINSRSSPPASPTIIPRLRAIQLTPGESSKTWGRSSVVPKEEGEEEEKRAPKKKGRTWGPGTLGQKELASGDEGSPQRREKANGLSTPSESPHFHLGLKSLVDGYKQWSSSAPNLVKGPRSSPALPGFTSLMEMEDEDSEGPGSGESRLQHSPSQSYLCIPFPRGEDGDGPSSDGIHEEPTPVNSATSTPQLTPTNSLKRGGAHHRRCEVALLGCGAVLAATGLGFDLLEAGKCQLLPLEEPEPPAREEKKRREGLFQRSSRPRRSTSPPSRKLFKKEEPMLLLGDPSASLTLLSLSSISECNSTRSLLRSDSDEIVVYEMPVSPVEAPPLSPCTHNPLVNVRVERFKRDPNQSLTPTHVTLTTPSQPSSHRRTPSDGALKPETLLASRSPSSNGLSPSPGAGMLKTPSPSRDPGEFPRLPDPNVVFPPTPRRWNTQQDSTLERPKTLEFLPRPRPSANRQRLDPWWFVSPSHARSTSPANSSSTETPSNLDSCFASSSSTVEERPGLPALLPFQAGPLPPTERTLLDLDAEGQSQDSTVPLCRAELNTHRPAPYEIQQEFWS
Chain of AKT2 (P31751 whole entry): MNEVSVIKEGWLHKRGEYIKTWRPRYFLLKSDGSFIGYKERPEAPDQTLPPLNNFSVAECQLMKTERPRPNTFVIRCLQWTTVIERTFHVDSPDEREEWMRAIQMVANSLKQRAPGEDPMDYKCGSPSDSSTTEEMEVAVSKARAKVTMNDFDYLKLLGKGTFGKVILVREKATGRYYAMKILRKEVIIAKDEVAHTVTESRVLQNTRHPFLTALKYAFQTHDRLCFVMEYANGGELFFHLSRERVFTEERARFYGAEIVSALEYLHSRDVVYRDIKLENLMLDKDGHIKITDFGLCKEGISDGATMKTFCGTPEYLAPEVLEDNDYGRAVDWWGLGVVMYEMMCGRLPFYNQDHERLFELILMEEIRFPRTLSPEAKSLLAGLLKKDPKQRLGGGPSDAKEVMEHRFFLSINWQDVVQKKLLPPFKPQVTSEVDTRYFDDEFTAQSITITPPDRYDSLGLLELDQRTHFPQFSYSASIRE
Chain of CLK4 (Q9HAZ1 whole entry, looked up): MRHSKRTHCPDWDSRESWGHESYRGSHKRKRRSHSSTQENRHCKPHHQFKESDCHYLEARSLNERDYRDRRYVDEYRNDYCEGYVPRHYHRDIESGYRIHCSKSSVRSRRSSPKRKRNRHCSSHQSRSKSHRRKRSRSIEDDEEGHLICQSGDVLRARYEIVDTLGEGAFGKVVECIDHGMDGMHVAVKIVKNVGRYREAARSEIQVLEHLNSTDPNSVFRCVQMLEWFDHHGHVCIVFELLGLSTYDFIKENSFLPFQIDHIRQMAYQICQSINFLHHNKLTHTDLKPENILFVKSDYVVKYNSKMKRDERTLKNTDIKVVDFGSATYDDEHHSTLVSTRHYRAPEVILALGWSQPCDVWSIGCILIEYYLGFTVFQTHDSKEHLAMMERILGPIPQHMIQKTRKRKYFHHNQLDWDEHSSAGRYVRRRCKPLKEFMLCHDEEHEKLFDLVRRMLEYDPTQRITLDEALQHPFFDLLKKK
Chain of PAK2 (Q13177 whole entry): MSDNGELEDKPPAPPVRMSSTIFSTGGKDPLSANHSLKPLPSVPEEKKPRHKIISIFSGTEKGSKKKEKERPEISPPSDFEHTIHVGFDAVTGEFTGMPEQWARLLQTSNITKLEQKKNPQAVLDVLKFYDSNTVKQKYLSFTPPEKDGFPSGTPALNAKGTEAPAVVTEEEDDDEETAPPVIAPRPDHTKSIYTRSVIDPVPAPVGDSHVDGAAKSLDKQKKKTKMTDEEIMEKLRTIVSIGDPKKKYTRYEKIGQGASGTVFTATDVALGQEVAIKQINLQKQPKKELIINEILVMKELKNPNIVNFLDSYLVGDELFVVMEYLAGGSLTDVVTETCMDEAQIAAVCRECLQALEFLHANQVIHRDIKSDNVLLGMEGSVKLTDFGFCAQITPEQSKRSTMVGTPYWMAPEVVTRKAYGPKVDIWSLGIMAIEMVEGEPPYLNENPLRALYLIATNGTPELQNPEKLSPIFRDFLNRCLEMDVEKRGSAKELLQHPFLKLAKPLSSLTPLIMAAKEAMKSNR

Row | SMILES | pIC50 (TBK1; cell material: Jurkat cells) | pIC50 (TBK1; cell material: Jurkat lysate) | pIC50 (TBK1; cell material: Lysate mix) | pIC50 (LIMK2; cell material: Jurkat cells) | pIC50 (LIMK2; cell material: Jurkat lysate) | pIC50 (LIMK2; cell material: Lysate mix) | pIC50 (AXL) | pIC50 (Fes) | pIC50 (CLK4; cell material: Jurkat lysate) | pIC50 (CLK4; cell material: Lysate mix) | pIC50 (AKT2; cell material: Jurkat cells) | pIC50 (KSR1; cell material: Jurkat cells) | pIC50 (KSR1; cell material: Jurkat lysate) | pIC50 (KSR1; cell material: Lysate mix) | pIC50 (UniProt P00519; cell material: Jurkat cells) | pIC50 (UniProt P00519; cell material: Jurkat lysate) | pIC50 (UniProt P00519; cell material: Lysate mix) | pIC50 (PAK2; cell material: Jurkat cells) | pIC50 (UniProt Q8NEB9; cell material: Jurkat cells) | pIC50 (MAPKAPK3; cell material: Jurkat cells) | pIC50 (MAPKAPK3; cell material: Jurkat lysate) | pIC50 (MAPKAPK3; cell material: Lysate mix) | pIC50 (UniProt P80192; cell material: Jurkat cells) | pIC50 (UniProt P80192; cell material: Jurkat lysate) | pIC50 (UniProt P80192; cell material: Lysate mix) | pIC50 (UniProt Q02750; cell material: Jurkat lysate) | pIC50 (UniProt Q02750; cell material: Lysate mix) | pIC50 (SGK2) | pIC50 (PAK2; cell material: Lysate mix) | pIC50 (AKT2; cell material: Lysate mix) | pIC50 (UniProt Q8NEB9; cell material: Lysate mix) | pIC50 (CLK4; cell material: Jurkat cells) | pIC50 (PAK2; cell material: Jurkat lysate) | pIC50 (UniProt Q02750; cell material: Jurkat cells)
1 | O=C(NCCNC(=O)c1cc(Nc2cc(C3CC3)[nH]n2)nc(N2CCN(Cc3ccc(S(=O)(=O)F)cc3)CC2)n1)OC1CC/C=C/CCC1 (stereo not given) | 5.71 | < 4.52 | < 4.52 | 6.33 | < 4.52 | < 4.52 | 4.72 | < 4.52 | < 4.52 | < 4.52 | < 4.52 | < 4.52 | < 4.52 | < 4.52 | 4.86 | < 4.52 | < 4.52 | < 4.52 | < 4.52 | 6.36 | 6.28 | < 4.52 | 6.19 | < 4.52 | < 4.52 | < 4.52 | < 4.52 | – | – | – | – | – | – | –
2 | Cc1cc(Nc2cc(C(=O)NCCNC(=O)OC3CC/C=C/CCC3)nc(N3CCN(Cc4ccc(S(=O)(=O)F)cc4)CC3)n2)n[nH]1 (stereo not given) | – | – | < 4.52 | – | – | < 4.52 | – | < 4.52 | – | < 4.52 | – | – | – | < 4.52 | – | – | < 4.52 | – | – | – | – | – | – | – | < 4.52 | – | < 4.52 | < 4.52 | < 4.52 | – | – | – | – | –
3 | CCNC(=O)c1cc(Nc2cc(C3CC3)[nH]n2)nc(N2CCN(Cc3ccc(S(=O)(=O)F)cc3)CC2)n1 | – | – | 5.34 | – | – | 5.38 | – | – | – | 5.05 | – | – | – | – | – | – | – | – | – | – | – | – | – | – | 5.78 | – | 5.78 | 5.7 | – | < 4.52 | < 4.52 | – | – | –
4 | CCNC(=O)c1cc(Nc2cc(C)[nH]n2)nc(N2CCN(Cc3ccc(S(=O)(=O)F)cc3)CC2)n1 | – | – | – | – | – | 4.62 | 4.74 | < 4.52 | – | < 4.52 | – | – | – | < 4.52 | – | – | < 4.52 | – | – | – | – | 5.74 | – | – | – | – | – | 5.46 | – | – | – | – | – | –
5 | C#CCNC(=O)c1cc(Nc2cc(C3CC3)[nH]n2)nc(N2CCN(Cc3ccc(S(=O)(=O)F)cc3)CC2)n1 | 5.98 | < 4.52 | 5.28 | 6.52 | 5.16 | 5.53 | < 4.52 | 5.24 | 4.85 | 5.2 | 5.74 | – | – | – | 5.64 | 4.67 | 4.67 | < 4.52 | 4.87 | 6.53 | 6.64 | – | 6.42 | 5.9 | 6.2 | < 4.52 | 5.59 | 6.52 | – | – | – | 6.1 | < 4.52 | 5.86
6 | C#CCNC(=O)c1cc(Nc2cc(C)[nH]n2)nc(N2CCN(Cc3ccc(S(=O)(=O)F)cc3)CC2)n1 | – | – | < 4.52 | – | – | – | – | < 4.52 | – | – | – | – | – | < 4.52 | – | – | < 4.52 | – | – | – | – | – | – | – | – | – | – | 5.8 | – | – | – | – | – | –
